From patent US10370343B2, “[6,6] Fused bicyclic HDAC8 inhibitors” (FORMA Therapeutics, Inc., priority 2015, dated 2019)

These compounds were tested against T1, Recombinant N-terminal GST tag full-length human HDAC8 (Homo sapiens, UniProt Q9BY41) (assay: HDAC8 probe binding assay, time resolved fluorescence (TRF) format). Conditions: compounds grouped by IC50 range (Table 2).
T1 construct: Recombinant N-terminal GST tag full-length human HDAC8; purchased SignalChem H90-30G-1000; host or cells: baculovirus in Sf9 insect cells
T1 sequence (Q9BY41 1-377): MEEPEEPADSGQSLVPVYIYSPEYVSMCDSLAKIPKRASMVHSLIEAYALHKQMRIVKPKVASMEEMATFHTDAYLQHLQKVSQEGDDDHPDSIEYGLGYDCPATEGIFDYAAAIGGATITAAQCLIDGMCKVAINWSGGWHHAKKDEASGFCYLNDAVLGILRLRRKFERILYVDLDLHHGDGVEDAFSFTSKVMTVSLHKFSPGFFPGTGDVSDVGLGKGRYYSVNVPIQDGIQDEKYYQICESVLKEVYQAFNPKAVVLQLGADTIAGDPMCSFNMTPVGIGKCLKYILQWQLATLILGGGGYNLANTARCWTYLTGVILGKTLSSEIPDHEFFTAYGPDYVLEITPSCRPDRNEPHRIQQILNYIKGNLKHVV
How it was run: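 Probe-binding TRF assay using full-length N-GST human HDAC8 expressed in baculovirus-infected Sf9 cells, incubated 16 h at room temperature and read at 340 nm excitation, 485/535 nm emission. Percent inhibition was normalised to no-enzyme and DMSO controls. IC50 was obtained by 4-parameter logistic fit.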

| IC50 | Structure (SMILES) |
| --- | --- |
| ≤ 25 nM | O=C(NO)c1ccc2c(c1)N(Cc1ccc(N3CCCC3)cc1)C(=O)CO2 [Compound I-176, N-hydroxy-3-oxo-4-(4-(pyrrolidin-1-yl)benzyl)-3,4-dihydro-2H-benzo[b][1,4]oxazine-6-carboxamide] |
| ≤ 25 nM | O=C(NO)c1ccc2c(c1)N(Cc1cnc3ccccc3c1)C(=O)CO2 [Compound I-333, N-hydroxy-3-oxo-4-(quinoIin-3-ylmethyl)-3,4-dihydro-2H-benzo[b][1,4]oxazine-6-carboxamide] |
| ≤ 25 nM | NC(=O)c1ccc(CN2C(=O)COc3ccc(C(=O)NO)cc32)cc1 [Compound I-362, 4-(4-carbamoylbenzyl)-N-hydroxy-3-oxo-3,4-dihydro-2H-benzo[b][1,4]oxazine-6-carboxamide] |
| 25 to 100 nM | CNC(=O)C1CN(Cc2ccc(OC)cc2)c2cc(C(=O)NO)ccc2O1 (stereo not drawn) [Compound I-170, N^6-hydroxy-4-(4-methoxybenzyl)-N^2-methyl-3,4-dihydro-2H, benzo[b][1,4]oxazine-2,6-dicarboxamide] |
| 25 to 100 nM | CC1(C)Oc2ccc(C(=O)NO)cc2N(Cc2ccccc2OC(F)(F)F)C1=O [Compound I-302, N-hydroxy-2,2-dimethyl-3-oxo-4-(2-(trifluoromethoxy)benzyl)-3,4-dihydro-2H-benzo[b][1,4]oxazine-6-carboxamide] |
| ≤ 25 nM | N#Cc1cccc(CN2C(=O)COc3ccc(C(=O)NO)cc32)c1 [Compound I-236, 4-(3-cyanobenzyl)-N-hydroxy-3-oxo-3,4-dihydro-2H-benzo[b][1,4]oxazine-6-carboxamide] |

Each compound was assayed against T2, Full length human recombinant HDAC8 protein (Homo sapiens, UniProt Q9BY41) (assay: In vitro histone deacetylase assay: enzymatic HDAC8 electrophoretic mobility shift assay). Conditions: electrophoretic mobility shift assay; enzyme 1 nM; 2 μM fluorescently labeled peptide substrate RHKK(Ac)-NH2; 25° C.; 12 concentrations; read-out: HDAC8 IC50.
T2 construct: Full length human recombinant HDAC8 protein was expressed in baculoviral system; made in house
T2 sequence (Q9BY41 1-377): T1 sequence (Q9BY41 1-377)
Assay type: biochemical
Description: The enzymatic HDAC8 assay was performed using electrophoretic mobility shift assay. Full length human recombinant HDAC8 protein was expressed in baculoviral system and purified by affinity chromatography. The enzymatic reactions were assembled in 384 well plates in a total volume of 25 μL in a reaction buffer composing: 100 mM HEPES, pH7.5, 25 mM KCl, 0.1% bovine serum albumin, 0.01% Triton X-100, 1% DMSO (from compounds) 2 μM of the fluorescently labeled peptide substrate and enzyme. The enzyme was added at a final concentration of 1 nM. The peptide substrate RHKK(Ac)—NH2 was used. The compounds were tested at 12 concentrations spaced by 3× dilution intervals. Negative control samples (0%-inhibition in the absence of inhibitor) and positive control samples (100%-inhibition) were assembled in replicates of four in each assay plate. The reactions were incubated at 25° C. and quenched by the addition of 45 μL of termination buffer (100 mM HEPES, pH 7.5, 0.01% Triton X-100, 0.05% SDS).
The terminated assay plates were analyzed on LabChip® 3000 microfluidic electrophoresis instrument (Perkin Elmer/Caliper Life Sciences). The fluorescence intensity of the electrophoretically separated de-acetylated product and substrate peptide was measured. Activity in each sample was determined as the product to sum ratio (PSR): P/(S+P), where P is the peak height of the product peptide and S is the peak height of the substrate peptide. Percent inhibition (Pinh) is determined using the following equation: Pinh=(PSR0%−PSRinh)/(PSR0%−PSR100%)*100, where PSRinh is the product sum ratio in the presence of inhibitor, PSR0% is the average product sum ration in the absence of inhibitor and PSR100% is the average product sum ratio in 100%-inhibition control samples. The IC50 values of inhibitors were determined by fitting the %-inhibition curves with 4 parameter dose-response model using XLfit 4 software.

| IC50 | Structure (SMILES) |
| --- | --- |
| 25 to 100 nM | O=C(NO)c1ccc2c(c1)N(Cc1ccccc1)CC(C(=O)NC1CCOCC1)O2 (stereo not drawn) [Compound I-2, 4-benzyl-N^6-hydroxy-N^2-(tetrahydro-2H-pyran-4-yl)-3,4-dihydro-2H-benzo[b][1,4]oxazine-2,6-dicarboxamide] |
| > 1000 nM | O=C(NO)c1ccc2c(c1)N(C(=O)N1CC3(CCOCC3)c3ccccc31)CCO2 [Compound I-156, N-hydroxy-4-(2′,3′,5′,6′-tetrahydrospiro[indoline-3,4′-pyran]-1-carbonyl)-3,4-dihydro-2H-benzo[b][1,4]oxazine-6-carboxamide] |
| 100 to 1000 nM | O=C(NO)c1ccc2c(c1)N(CC1CCOCC1)C(=O)CO2 [Compound I-48, N-hydroxy-3-oxo-4-((tetrahydro-2H-pyran-4-yl)methyl)-3,4-dihydro-2H-benzo[b][1,4]oxazine-6-carboxamide] |
| 25 to 100 nM | O=C(NO)c1ccc2c(c1)N(CCc1ccc(Cl)cc1)C(=O)CO2 [Compound I-34, 4-(4-chlorophenethyl)-N-hydroxy-3-oxo-3,4-dihydro-2H-benzo[b][1,4]oxazine-6-carboxamide] |
| 25 to 100 nM | CS(=O)(=O)c1ccc(CN2CCOc3ccc(C(=O)NO)cc32)cc1 [Compound I-120, N-hydroxy-4-(4-(methylsulfonyl)benzyl)-3,4-dihydro-2H-benzo[b][1,4]oxazine-6-carboxamide] |
| > 1000 nM | O=C(NO)c1ccc2c(c1)N(C(=O)N1CCCCC1)CCO2 [Compound I-97, N-hydroxy-4-(piperidine-1-carbonyl)-3,4-dihydro-2H-benzo[b][1,4]oxazine-6-carboxamide] |
| < 25 nM | O=C(NO)c1ccc2c(c1)N(Cc1cc(C(F)(F)F)ccc1F)C(=O)CO2 [Compound I-73, 4-(2-fluoro-5-(trifluoromethyl)benzyl)-N-hydroxy-3-oxo-3,4-dihydro-2H-benzo[b][1,4]oxazine-6-carboxamide] |
| 100 to 1000 nM | C=C(C)CN1CCOc2ccc(C(=O)NO)cc21 [Compound I-22, N-hydroxy-4-(2-methylallyl)-3,4-dihydro-2H-benzo[b][1,4]oxazine-6-carboxamide] |
| < 25 nM | O=C(NO)c1ccc2c(c1)N(Cc1ccc(S(=O)(=O)C(F)(F)F)cc1)C(=O)CO2 [Compound I-17, N-hydroxy-3-oxo-4-(4-((trifluoromethyl)sulfonyl)benzyl)-3,4-dihydro-2H-benzo[b][1,4]oxazine-6-carboxamide] |
| 100 to 1000 nM | COc1ccc(CN2CCS(=O)(=O)c3cc(C(=O)NO)ccc32)cc1 [Compound I-80, N-hydroxy-4-(4-methoxybenzyl)-3,4-dihydro-2H-benzo[b][1,4]thiazine-7-carboxamide-1,1-dioxide] |
| < 25 nM | O=C(NO)c1ccc2c(c1)N(Cc1cccc(C(F)(F)F)c1)CCO2 [Compound I-124, N-hydroxy-4-(3-(trifluoromethyl)benzyl)-3,4-dihydro-2H-benzo[b][1,4]oxazine-6-carboxamide] |
| 100 to 1000 nM | C=CCN1C(=O)COc2ccc(C(=O)NO)cc21 [Compound I-41, 4-allyl-N-hydroxy-3-oxo-3,4-dihydro-2H-benzo[b][1,4]oxazine-6-carboxamide] |
| 100 to 1000 nM | Cc1ccc(CN2CCOc3ccc(C(=O)NO)cc32)cc1 [Compound I-117, N-hydroxy-4-(4-methylbenzyl)-3,4-dihydro-2H-benzo[b][1,4]oxazine-6-carboxamide] |
| 100 to 1000 nM | COc1ccc(CN2C(=O)C(C)Oc3cc(C(=O)NO)ccc32)cc1 (stereo not drawn) [Compound I-91, N-hydroxy-4-(4-methoxybenzyl)-2-methyl-3-oxo-3,4-dihydro-2H-benzo[b][1,4]oxazine-7-carboxamide] |
| > 1000 nM | O=C(NO)c1ccc2c(c1)OCCN2c1nc2ccccc2[nH]1 [Compound I-109, 4-(1H-benzo[d]imidazol-2-yl)-N-hydroxy-3,4-dihydro-2H-benzo[b][1,4]oxazine-7-carboxamide] |
| 100 to 1000 nM | O=C(NO)c1ccc2c(c1)N(Cc1nc3ccccc3n1CC1CC1)CCO2 [Compound I-30, 4-((1-(cyclopropylmethyl)-1H-benzo[d]imidazol-2-yl)methyl)-N-hydroxy-3,4-dihydro-2H-benzo[b][1,4]oxazine-6-carboxamide] |
| 100 to 1000 nM | Cc1ccccc1CN1C(=O)COc2ccc(C(=O)NO)cc21 [Compound I-148, N-hydroxy-4-(2-methylbenzyl)-3-oxo-3,4-dihydro-2H-benzo[b][1,4]oxazine-6-carboxamide] |
| > 1000 nM | O=C(NO)c1ccc2c(c1)N(c1nc3ccccc3[nH]1)CCO2 [Compound I-108, 4-(1H-benzo[d]imidazol-2-yl)-N-hydroxy-3,4-dihydro-2H-benzo[b][1,4]oxazine-6-carboxamide] |
| < 25 nM | Cc1ccc(C(F)(F)F)cc1CN1C(=O)COc2ccc(C(=O)NO)cc21 [Compound I-72, N-hydroxy-4-(2-methyl-5-(trifluoromethyl)benzyl)-3-oxo-3,4-dihydro-2H-benzo[b][1,4]oxazine-6-carboxamide] |
| < 25 nM | O=C(NO)c1ccc2c(c1)N(Cc1cccc(-c3ccccc3)c1)C(=O)CO2 [Compound I-75, 4-([1,1′-biphenyl]-3-ylmethyl)-N-hydroxy-3-oxo-3,4-dihydro-2H-benzo[b][1,4]oxazine-6-carboxamide] |
| 100 to 1000 nM | CS(=O)(=O)c1ccccc1CN1CCOc2ccc(C(=O)NO)cc21 [Compound I-130, N-hydroxy-4-(2-(methylsulfonyl)benzyl)-3,4-dihydro-2H-benzo[b][1,4]oxazine-6-carboxamide] |
| < 25 nM | CC(c1ccc(S(C)(=O)=O)cc1)N1CCS(=O)(=O)c2ccc(C(=O)NO)cc21 (stereo not drawn) [Compound I-16, N-hydroxy-4-(1-(4-(methylsulfonyl)phenyl)ethyl)-3,4-dihydro-2H-benzo[b][1,4]thiazine-6-carboxamide-1,1-dioxide] |
| 100 to 1000 nM | O=C(NO)c1ccc2c(c1)N(Cc1ccccc1OC(F)(F)F)C(=O)CO2 [Compound I-66, N-hydroxy-3-oxo-4-(2-(trifluoromethoxy)benzyl)-3,4-dihydro-2H-benzo[b][1,4]oxazine-6-carboxamide] |
| 100 to 1000 nM | COCCn1c(N2CCCc3cc(C(=O)NO)ccc32)nc2ccccc21 [Compound I-111, N-hydroxy-1-(1-(2-methoxyethyl)-1H-benzo[d]imidazol-2-yl)-1,2,3,4-tetrahydroquinoline-6-carboxamide] |
